“And” between values parts separate entries of the source, which are not always exact repeats. Equal values may be shown once. Bounds are passed on as bounds.

Assay [1] has as its target Tyrosine-protein kinase JAK2 (Homo sapiens, UniProt O60674).
The target in assay [2] is Tyrosine-protein kinase JAK1 (Homo sapiens, UniProt P23458). The experiment in a line: Subsequent reagent additions employed an Agilent Bravo.
Chain of Tyrosine-protein kinase JAK1 (P23458 whole entry): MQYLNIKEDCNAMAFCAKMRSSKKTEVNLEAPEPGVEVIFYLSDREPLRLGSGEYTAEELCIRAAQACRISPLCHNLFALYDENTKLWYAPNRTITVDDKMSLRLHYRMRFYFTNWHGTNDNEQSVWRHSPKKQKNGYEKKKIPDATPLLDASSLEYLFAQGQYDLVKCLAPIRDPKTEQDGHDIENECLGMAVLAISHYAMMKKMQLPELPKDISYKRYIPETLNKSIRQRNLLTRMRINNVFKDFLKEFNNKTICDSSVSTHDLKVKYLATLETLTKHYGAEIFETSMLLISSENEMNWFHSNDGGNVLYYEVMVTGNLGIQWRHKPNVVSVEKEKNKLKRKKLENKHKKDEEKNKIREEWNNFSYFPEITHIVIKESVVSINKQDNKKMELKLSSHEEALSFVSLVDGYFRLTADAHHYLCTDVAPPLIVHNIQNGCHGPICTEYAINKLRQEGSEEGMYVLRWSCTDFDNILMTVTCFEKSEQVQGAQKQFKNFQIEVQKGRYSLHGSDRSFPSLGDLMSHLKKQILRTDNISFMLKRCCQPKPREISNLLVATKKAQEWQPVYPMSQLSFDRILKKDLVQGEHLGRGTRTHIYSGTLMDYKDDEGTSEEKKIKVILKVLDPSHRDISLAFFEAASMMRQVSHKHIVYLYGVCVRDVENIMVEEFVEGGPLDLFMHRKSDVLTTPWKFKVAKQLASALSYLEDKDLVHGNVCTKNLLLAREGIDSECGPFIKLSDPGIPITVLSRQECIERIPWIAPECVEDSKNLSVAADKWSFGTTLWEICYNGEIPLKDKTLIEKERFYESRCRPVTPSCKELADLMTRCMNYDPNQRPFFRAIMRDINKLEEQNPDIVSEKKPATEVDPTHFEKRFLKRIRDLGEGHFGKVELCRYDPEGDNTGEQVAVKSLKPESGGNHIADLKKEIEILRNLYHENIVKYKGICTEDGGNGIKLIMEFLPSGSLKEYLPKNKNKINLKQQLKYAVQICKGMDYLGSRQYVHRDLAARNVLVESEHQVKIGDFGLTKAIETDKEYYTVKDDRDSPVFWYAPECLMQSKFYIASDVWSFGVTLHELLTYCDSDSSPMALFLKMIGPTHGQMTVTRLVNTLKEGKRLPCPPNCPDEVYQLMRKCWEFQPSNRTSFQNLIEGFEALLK

Chain of Tyrosine-protein kinase JAK2 (O60674 whole entry): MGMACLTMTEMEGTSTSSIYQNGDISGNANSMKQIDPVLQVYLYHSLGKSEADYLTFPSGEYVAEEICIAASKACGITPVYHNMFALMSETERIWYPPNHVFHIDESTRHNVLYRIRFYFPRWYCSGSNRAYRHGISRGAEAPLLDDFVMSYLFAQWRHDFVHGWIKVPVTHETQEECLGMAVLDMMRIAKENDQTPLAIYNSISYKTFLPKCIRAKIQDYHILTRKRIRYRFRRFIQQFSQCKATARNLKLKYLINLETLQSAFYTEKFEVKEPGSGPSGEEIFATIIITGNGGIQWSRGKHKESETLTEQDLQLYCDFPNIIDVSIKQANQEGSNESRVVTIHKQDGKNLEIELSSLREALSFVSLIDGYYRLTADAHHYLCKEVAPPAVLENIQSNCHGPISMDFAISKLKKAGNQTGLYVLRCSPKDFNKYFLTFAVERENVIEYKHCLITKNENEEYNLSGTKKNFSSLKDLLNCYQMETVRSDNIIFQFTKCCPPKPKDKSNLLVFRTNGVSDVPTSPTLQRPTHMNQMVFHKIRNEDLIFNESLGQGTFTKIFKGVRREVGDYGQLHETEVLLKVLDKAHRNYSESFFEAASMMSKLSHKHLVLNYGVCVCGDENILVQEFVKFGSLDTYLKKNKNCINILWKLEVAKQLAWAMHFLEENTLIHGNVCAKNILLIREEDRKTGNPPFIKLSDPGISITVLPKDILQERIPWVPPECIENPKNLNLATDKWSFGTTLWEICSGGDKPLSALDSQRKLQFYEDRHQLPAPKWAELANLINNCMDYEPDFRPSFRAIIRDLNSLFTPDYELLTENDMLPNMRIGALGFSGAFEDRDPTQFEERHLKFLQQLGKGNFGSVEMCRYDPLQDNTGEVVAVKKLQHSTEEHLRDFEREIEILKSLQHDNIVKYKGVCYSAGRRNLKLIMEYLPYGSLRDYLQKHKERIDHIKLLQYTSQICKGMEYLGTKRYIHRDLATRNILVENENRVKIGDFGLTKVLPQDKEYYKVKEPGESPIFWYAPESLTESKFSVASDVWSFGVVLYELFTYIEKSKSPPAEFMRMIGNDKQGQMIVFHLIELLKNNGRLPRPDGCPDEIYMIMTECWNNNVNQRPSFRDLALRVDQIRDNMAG

On to `CC(C)(C)OC(=O)N1CCC(CC#N)(n2cc(C(N)=O)c(Nc3cc(Cl)nc(Cl)c3)n2)CC1`, for which the IC50 in assay [1] came out at 33 nM; in assay [2] it was 1 nM.
Consider `CN(C)C(=O)c1ccc(Nc2nn(C3(CC#N)CCN(C(=O)OC(C)(C)C)CC3)cc2C(N)=O)cc1`, for which the values for the IC50 in assay [1] and in assay [2] were 2 nM and 0.7 nM, respectively.
As for `N#CCC1(n2cc(C(N)=O)c(Nc3ccnc(F)c3)n2)CCC(N)CC1` (stereo not given), in assay [1], the IC50 was > 1500 nM and 161 nM.

These data come from ChEMBL document CHEMBL3886705, “Cyanomethylpyrazole carboxamides as janus kinase inhibitors” (2016).
